Laboratory results as given in patent publication US20250255848A1, “SUBSTITUTED 6,7-DIHYDRO-5H-BENZO[7]ANNULENE DERIVATIVES, PROCESSES FOR THEIR PREPARATION AND THERAPEUTIC USES THEREOF” (SANOFI, priority 2022, published 2025).

Target: ERα (Homo sapiens (Human), UniProt P03372)
Experiment: Estrogen receptor degradation activity: breast cancer cell ERα in cell western assay
Assay type: cell-based
Conditions: MCF7 cells; for % Degradation At 0.3 μM: 4 hours, normalised to fulvestrant 0.1 μM and DMSO; for IC50 / DC50: 4 hours post compound addition, concentration which degrades 50% of the estrogen receptor; for DC50: read-out: Degradation IC50
In short: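 MCF7 cells in phenol-red-free medium with 5% charcoal-stripped FBS, treated 4 h with 9-point 1:5 dilutions (0.3-0.0000018 μM final). ERα measured by in-cell western (anti-ER antibody, Alexa 488), normalized to Syto-64 DNA stain; % decrease scaled DMSO to 0.1 μM fulvestrant, IC50 in nM.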

Chain of ERα (P03372 whole entry): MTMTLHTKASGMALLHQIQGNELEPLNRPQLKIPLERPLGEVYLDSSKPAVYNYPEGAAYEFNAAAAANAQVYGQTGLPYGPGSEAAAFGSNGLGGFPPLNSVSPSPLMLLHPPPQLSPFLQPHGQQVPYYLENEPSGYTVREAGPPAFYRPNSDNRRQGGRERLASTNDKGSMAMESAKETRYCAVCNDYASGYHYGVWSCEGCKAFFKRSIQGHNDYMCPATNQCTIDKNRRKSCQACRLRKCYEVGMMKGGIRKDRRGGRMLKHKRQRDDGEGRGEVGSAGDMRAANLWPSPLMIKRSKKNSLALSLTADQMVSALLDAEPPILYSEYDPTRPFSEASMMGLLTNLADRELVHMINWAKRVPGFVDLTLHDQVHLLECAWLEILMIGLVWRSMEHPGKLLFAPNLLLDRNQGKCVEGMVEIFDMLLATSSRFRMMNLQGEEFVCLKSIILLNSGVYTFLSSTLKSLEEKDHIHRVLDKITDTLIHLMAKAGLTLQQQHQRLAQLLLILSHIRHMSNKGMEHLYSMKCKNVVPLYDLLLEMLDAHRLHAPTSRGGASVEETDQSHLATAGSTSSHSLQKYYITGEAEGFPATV

SMILES | % Degradation At 0.3 μM [%] | IC50 [nM] | DC50 [nM]
COc1cc(C)cc(C)c1C1=C(c2ccc(C=C3CN(CCCF)C3)cc2)c2ccc(C(=O)O)cc2CCC1 [Compound 14, 9-(4-((1-(3-fluoropropyl)azetidin-3-ylidene)methyl)phenyl)-8-(2-methoxy-4,6-dimethylphenyl)-6,7-dihydro-5H-benzo[7]annulene-3-carboxylic acid] | 91 | 0.6 | 
Cc1cc(C2=C(c3ccc(C=C4CN(CCCF)C4)cc3)c3ccc(C(=O)O)cc3CCC2)ccc1C(F)F [Compound 28, 8-(4-(difluoromethyl)-3-methylphenyl)-9-(4-((1-(3-fluoropropyl)azetidin-3-ylidene)methyl)phenyl)-6,7-dihydro-5H-benzo[7]annulene-3-carboxylic acid] | 94 | 0.5 | 
O=C(O)c1ccc2c(c1)CCCC(c1c(Cl)cccc1OC(F)(F)F)=C2c1ccc(C=C2CN(CCCF)C2)cc1 [Compound 17, 8-(2-chloro-6-(trifluoromethoxy)phenyl)-9-(4-((1-(3-fluoropropyl)azetidin-3-ylidene)methyl)phenyl)-6,7-dihydro-5H-benzo[7]annulene-3-carboxylic acid] | 91 | 0.5 | 
Cc1cc(C)c(C2=C(c3ccc(C=C4CN(CCCF)C4)cc3)c3ccc(C(=O)O)cc3CCC2)c(C(F)(F)F)c1 [Compound 72, 8-(2,4-dimethyl-6-(trifluoromethyl)phenyl)-9-(4-((1-(3-fluoropropyl)azetidin-3-ylidene)methyl)phenyl)-6,7-dihydro-5H-benzo[7]annulene-3-carboxylic acid] | 100 | 0.3 | 
COc1cccc(Cl)c1C1=C(c2ccc(C=C3CN(CCCF)C3)cc2)c2ccc(C(=O)O)cc2CCC1 [Compound 23, 8-(2-chloro-6-methoxyphenyl)-9-(4-((1-(3-fluoropropyl)azetidin-3-ylidene)methyl)phenyl)-6,7-dihydro-5H-benzo[7]annulene-3-carboxylic acid] | 91 | 0.4 | 
COc1c(F)cccc1C1=C(c2ccc(C=C3CN(CCCF)C3)cc2)c2ccc(C(=O)O)cc2CCC1 [Compound 40, 8-(3-fluoro-2-methoxyphenyl)-9-(4-((1-(3-fluoropropyl)azetidin-3-ylidene)methyl)phenyl)-6,7-dihydro-5H-benzo[7]annulene-3-carboxylic acid] | 91 | 0.5 | 
O=C(O)c1ccc2c(c1)CCCC(c1cccc(F)c1CF)=C2c1ccc(C=C2CN(CCCF)C2)cc1 [Compound 38, 8-(3-fluoro-2-(fluoromethyl)phenyl)-9-(4-((1-(3-fluoropropyl)azetidin-3-ylidene)methyl)phenyl)-6,7-dihydro-5H-benzo[7]annulene-3-carboxylic acid] | 90 | 0.4 | 
O=C(O)c1ccc2c(c1)CCCC(c1ccc(C(F)F)cc1C(F)(F)F)=C2c1ccc(C=C2CN(CCCF)C2)cc1 [Compound 51, 8-(4-(difluoromethyl)-2-(trifluoromethyl)phenyl)-9-(4-((1-(3-fluoropropyl)azetidin-3-ylidene)methyl)phenyl)-6,7-dihydro-5H-benzo[7]annulene-3-carboxylic acid] | 92 | 0.5 | 
O=C(O)c1ccc2c(c1)CCCC(c1c(F)cccc1C(F)(F)F)=C2c1ccc(C=C2CN(CCCF)C2)cc1 [Compound 20, 8-(2-fluoro-6-(trifluoromethyl)phenyl)-9-(4-((1-(3-fluoropropyl)azetidin-3-ylidene)methyl)phenyl)-6,7-dihydro-5H-benzo[7]annulene-3-carboxylic acid] | 94 | 0.6 | 
COc1cc(C(F)(F)F)ccc1C1=C(c2ccc(C=C3CN(CCCF)C3)cc2)c2ccc(C(=O)O)cc2CCC1 [Compound 59, 9-(4-((1-(3-fluoropropyl)azetidin-3-ylidene)methyl)phenyl)-8-(2-methoxy-4-(trifluoromethyl)phenyl)-6,7-dihydro-5H-benzo[7]annulene-3-carboxylic acid] | 92 | 0.9 | 
O=C(O)c1ccc2c(c1)CCCC(c1ccc(C(F)(F)F)cc1C1CC1)=C2c1ccc(C=C2CN(CCCF)C2)cc1 [Compound 48, 8-(2-cyclopropyl-4-(trifluoromethyl)phenyl)-9-(4-((1-(3-fluoropropyl)azetidin-3-ylidene)methyl)phenyl)-6,7-dihydro-5H-benzo[7]annulene-3-carboxylic acid] | 94 | 0.9 | 
O=C(O)c1ccc2c(c1)CCCC(C1CC13CCC3)=C2c1ccc(C=C2CN(CCCF)C2)cc1 (single isomer, unassigned) [Compound 35, 9-(4-((1-(3-fluoropropyl)azetidin-3-ylidene)methyl)phenyl)-8-(spiro[2.3]hexan-1-yl)-6,7-dihydro-5H-benzo[7]annulene-3-carboxylic acid] | 91 |  | 0.3
COc1cc(C)c(C2=C(c3ccc(C=C4CN(CCCF)C4)cc3)c3ccc(C(=O)O)cc3CCC2)c(C)c1 [Compound 18, 9-(4-((1-(3-fluoropropyl)azetidin-3-ylidene)methyl)phenyl)-8-(4-methoxy-2,6-dimethylphenyl)-6,7-dihydro-5H-benzo[7]annulene-3-carboxylic acid] | 91 | 0.6 | 
COc1cccc(C2=C(c3ccc(C=C4CN(CCCF)C4)cc3)c3ccc(C(=O)O)cc3CCC2)c1C [Compound 41, 9-(4-((1-(3-fluoropropyl)azetidin-3-ylidene)methyl)phenyl)-8-(3-methoxy-2-methylphenyl)-6,7-dihydro-5H-benzo[7]annulene-3-carboxylic acid] | 91 | 0.7 | 
Cc1ccc(C(F)F)c(C2=C(c3ccc(C=C4CN(CCCF)C4)cc3)c3ccc(C(=O)O)cc3CCC2)c1 [Compound 57, 8-(2-(difluoromethyl)-5-methylphenyl)-9-(4-((1-(3-fluoropropyl)azetidin-3-ylidene)methyl)phenyl)-6,7-dihydro-5H-benzo[7]annulene-3-carboxylic acid] | 93 | 0.7 | 
Cc1cccc(C(F)(F)F)c1C1=C(c2ccc(C=C3CN(CCCF)C3)cc2)c2ccc(C(=O)O)cc2CCC1 [Compound 1, 9-(4-((1-(3-fluoropropyl)azetidin-3-ylidene)methyl)phenyl)-8-(2-methyl-6-(trifluoromethyl)phenyl)-6,7-dihydro-5H-benzo[7]annulene-3-carboxylic acid] | 92 | 0.3 | 
Cc1cc(C(F)(F)F)c(C)cc1C1=C(c2ccc(C=C3CN(CCCF)C3)cc2)c2ccc(C(=O)O)cc2CCC1 [Compound 78, 8-(2,5-dimethyl-4-(trifluoromethyl)phenyl)-9-(4-((1-(3-fluoropropyl)azetidin-3-ylidene)methyl)phenyl)-6,7-dihydro-5H-benzo[7]annulene-3-carboxylic acid] | 94 | 0.4 | 
O=C(O)c1ccc2c(c1)CCCC(c1c(F)cccc1OC(F)(F)F)=C2c1ccc(C=C2CN(CCCF)C2)cc1 [Compound 9, 8-(2-fluoro-6-(trifluoromethoxy)phenyl)-9-(4-((1-(3-fluoropropyl)azetidin-3-ylidene)methyl)phenyl)-6,7-dihydro-5H-benzo[7]annulene-3-carboxylic acid] | 96 | 0.6 | 
O=C(O)c1ccc2c(c1)CCCC(c1ccc(Cl)cc1Cl)=C2c1ccc(C=C2CN(CC(F)CF)C2)cc1 (single isomer, unassigned) [Compound 69, 8-(2,4-dichlorophenyl)-9-(4-((1-(2,3-difluoropropyl)azetidin-3-ylidene)methyl)phenyl)-6,7-dihydro-5H-benzo[7]annulene-3-carboxylic acid] | 74 |  | 1.3
Cc1c(OC(F)(F)F)cccc1C1=C(c2ccc(C=C3CN(CCCF)C3)cc2)c2ccc(C(=O)O)cc2CCC1 [Compound 24, 9-(4-((1-(3-fluoropropyl)azetidin-3-ylidene)methyl)phenyl)-8-(2-methyl-3-(trifluoromethoxy)phenyl)-6,7-dihydro-5H-benzo[7]annulene-3-carboxylic acid] | 91 | 0.5 | 
Cc1ccc(C2=C(c3ccc(C=C4CN(CCCF)C4)cc3)c3ccc(C(=O)O)cc3CCC2)c(C)c1F [Compound 12, 8-(3-fluoro-2,4-dimethylphenyl)-9-(4-((1-(3-fluoropropyl)azetidin-3-ylidene)methyl)phenyl)-6,7-dihydro-5H-benzo[7]annulene-3-carboxylic acid] | 92 | 0.7 | 
CCc1c(Cl)cccc1C1=C(c2ccc(C=C3CN(CCCF)C3)cc2)c2ccc(C(=O)O)cc2CCC1 [Compound 46, 8-(3-chloro-2-ethylphenyl)-9-(4-((1-(3-fluoropropyl)azetidin-3-ylidene)methyl)phenyl)-6,7-dihydro-5H-benzo[7]annulene-3-carboxylic acid] | 91 | 0.5 | 
CCc1c(C2=C(c3ccc(C=C4CN(CCCF)C4)cc3)c3ccc(C(=O)O)cc3CCC2)cccc1C(F)(F)F [Compound 5, 8-(2-ethyl-3-(trifluoromethyl)phenyl)-9-(4-((1-(3-fluoropropyl)azetidin-3-ylidene)methyl)phenyl)-6,7-dihydro-5H-benzo[7]annulene-3-carboxylic acid] | 93 | 0.3 | 
C[C@H]1CC[C@H](C2=C(c3ccc(C=C4CN(CCCF)C4)cc3)c3ccc(C(=O)O)cc3CCC2)CC1 [Compound 56, 9-(4-((1-(3-fluoropropyl)azetidin-3-ylidene)methyl)phenyl)-8-(trans-4-methylcyclohexyl)-6,7-dihydro-5H-benzo[7]annulene-3-carboxylic acid] | 92 | 0.7 | 
